Laboratory results taken from patent US12215354B2, “Differentiation of human embryonic stem cells into single hormonal insulin positive cells” (Janssen Biotech, Inc., priority 2011, dated 2025).

System: human embryonic stem cell line H1
Assay: Immune staining for insulin, glucagon and somatostatin hormones at end of stage 5 (Example 13)
Format: cell-based
Conditions: percentage of the entire hormone count at S5 day 3
Procedure: Cells of the human embryonic stem cell line H1 at various passages (passage 40 to passage 52) were seeded as single cells at a density of 100,000 cells/cm^2 on MATRIGEL™ (1:30 dilution) coated dishes in mTesr™1 media and 10 μM of Y27632. Forty eight hours post seeding, cultures were differentiated into pancreatic endocrine lineage as follows: • a. Stage 1 (Definitive Endoderm (DE)−3 days): Prior to start of DE, the cultures were washed and incubated with incomplete PBS (no Mg or Ca) for 30 seconds followed by addition of the stage 1 media. Human embryonic stem cells cultured as single cells on MATRIGEL™-coated dishes were treated with MCDB-131 medium supplemented with 0.1% fatty acid-free BSA, 0.0012 g/ml sodium bicarbonate, 1× GLUTAMAX™, 5 mM D-Glucose, 100 ng/ml GDF8, 1 μM MCX compound (GSK3B inhibitor) for one day. Cells were then treated with MCDB-131 medium supplemented with 0.1% fatty acid-free BSA, sodium bicarbonate, GLUTAMAX™, extra 5 mM glucose, 100 ng/ml GDF8, and 100 nM MCX compound for day two followed by an additional day in MCDB-131 medium supplemented with 0.1% fatty acid-free BSA, 0.0012 g/ml sodium bicarbonate, 1× GLUTAMAX™, 5 mM Glucose, and 100 ng/ml GDF8. • b. Stage 2 (Primitive gut tube−2 days): Cells were treated with MCDB-131 medium supplemented with 0.1% fatty acid-free BSA, 0.0012 g/ml sodium bicarbonate, 1× GLUTAMAX™, 5 mM D-Glucose, 0.25 mM ascorbic acid, and 25 ng/ml FGF7 and for two days, then • MCDB131supplemented with 1:200 dilution of ITS-X, 2.5 mM Glucose, 1× GLUTAMAX™, 0.0015 g/ml sodium bicarbonate, 2% fatty acid-free BSA, 10 ng/ml Activin A, 25 ng/ml FGF7, 0.25 mM ascorbic acid, 0.25 μM SANT-1, 1 μM RA, 200 nM TPB, 100 nM LDN-193189 for day 1, followed by treatment with tMCDB131supplemented with 1:200 dilution of ITS-X, 2.5 mM Glucose, 1× GLUTAMAX™, 0.0015 g/ml sodium bicarbonate, 2% fatty acid-free BSA, 10 ng/ml Activin A, 25 ng/ml FGF7, 0.25 mM ascorbic acid, 0.25 μMSANT-1, 1 μM RA, 200 nM TPB, 10 nM LDN-193189 for an additional day. • d. […]

## O=C1O[C@H]([C@@H](O)CO)C(O)=C1O [ascorbic acid]
Treatment at S5
  % Polyhormonal: 44%
  % glucagon + plus % somatostatin+: 44%
Treatment at S5 (0.1 mM ascorbic acid, 50 nM RA, 0.25 μM SANT-1, 1 μM Alk5 inh)
  % single hormonal Insulin+: 12%
